The record followed here is patent US7033829B2, “Method to inhibit cell growth using oligonucleotides” (Trustees of Boston University, priority 2000, dated 2006).

Data set [1] has as its system Human squamous carcinoma cell line SCC12F cells. The experiment in a line: Cell growth / cell yield of SCC12F cells (Coulter counter). Conditions: 100 μM; days 1, 3, 4, 5 after dosage. In kind it is cell-based. As for the experimental part: Human squamous carcinoma cell line SCC12F cells were maintained in primary keratinocyte medium (300 ml DME, 100 ml F-12 nutrient supplement, 50 ml 10× adenine, 50 ml fetal bovine serum, 5 ml penicillin/streptomycin stock, and 0.5 ml of 10 μg/ml epidermal growth factor and hydrocortisone to final concentration of 1.4 μg/ml) and dosed with either water (diluent), 100 μM pTpT (T2, Midland Certified Reagent Company, Midland, Tex.) or 100 μM pdApdA (A2). Cells were harvested before dosing (day 0), and 1, 3, 4, and 5 days after dosage, and were counted by Coulter™ counter. After harvesting, the cells were processed for total RNA isolation and were analyzed by Northern blot. Addition of a control deoxyadenine dinucleotide (pdApdA), a compound very similar to pTpT but not readily dimerized by UV irradiation, and therefore rarely excised during the course of UV-induced DNA repair, has no effect.
In a second experiment, SCC12F cells were cultured as described above. Two or three days after seeding, the preconfluent cultures were given fresh medium supplemented with either 100 μM T2 or diluent as a control. Cells were collected daily by trypsinization and counted by Coulter™ counter. The cell yield in cultures treated with T2 was reduced by […] compared to that of paired control cultures after five days (FIG. 2). This corresponds to 2.3 population doublings in this time for control cells, compared with 1 doubling for T2-treated cells.
pTpT was previously found to inhibit cell cycle progression, at least in part through activation of p53 and subsequent upregulation of the cyclin dependent kinase inhibitor p21. Cultures of the human keratinocyte line SCC12F were treated with pTpT, SEQ ID NO: 1, SEQ ID NO: 6 or diluent alone as a negative control, collected and counted 48 hours later and processed for northern blot analysis of p21 mRNA expression. […] Thus, the sequences of the present invention activate p53 and inhibit cell proliferation similar to the effect of pTpT.
Exposure of keratinocytes to UVB irradiation affects the expression of genes involved in cell cycle arrest, DNA repair and cytokine production. Single-stranded oligonucleotides sharing sequence homology with the telomere 3′ overhang, when introduced into cells, mimic these UV effects. To identify other genes that may be similarly modulated, cells of keratinocyte origin (SCC12F; a human epidermal squamous cell carcinoma line provided by Dr. James Rheinwald of Harvard University) were exposed to solar simulated irradiation (SSR) (20 mJ/cm^2, measured at 285±5 nm), to an 11-base oligonucleotide (pGTTAGGGTTAG; SEQ ID NO:5) homologous to the telomere overhang (T-oligo), or to a complementary sequence as control [pCTAACCCTAAC; (SEQ ID NO:9) control oligonucleotide]. […] These are mitochondrial-transcribed genes whose encoded proteins participate in cellular respiration.

In the next data set the test system is contact hypersensitivity. Put plainly: Contact hypersensitivity to DNFB (ear swelling). It is filed as in vivo, C57B16 mice. Conditions: 30 μl of 100 μM BID×5d topical to abdominal skin before sensitization. The protocol: C57B16 mice were subjected to the following treatment prior to sensitization with the allergen DNFB, by topical administration to abdominal skin; no pretreatment, UVB irradiation (200 J/m^2/dx4d), pTpT, pApA, or vehicle alone (30 μl of 100 μM BID×5d).

For data set [2], the system named is GADD 45, ERCC 3 and SDI 1 mRNA. The experiment in a line: Northern blot of GADD 45, ERCC 3 and SDI 1 in SCC12F cells. In kind it is cell-based, human. The conditions noted are these: 100 μM; as early as 24 hours, several days. The protocol:
Paired cultures of SCC12F cells were maintained in a Dulbecco's modified Eagle's Medium-based keratinocyte growth medium (DMEM; GIBCO/BRL, Gaithersburg, Md.) supplemented with 10% fetal calf serum (Hyclone Labs, Logan, Utah) and epidermal growth factor as described (Hollander, M. C. et al., J. Biol. Chem. 268:328–336 (1992)). Pre-confluent cultures were given fresh medium supplemented with either 100 μM T2, or an equal volume of diluent. Cells were collected daily after additions, and processed for total RNA isolation using the Tri-Reagent extraction method (Molecular Research Center, Cincinnati, Ohio) following the protocol of the manufacturer. Ten micrograms of RNA from each sample was gel electrophoresed, transferred to a nylon filter and probed as described previously (Nada, A. et al., Exp. Cell Res. 211:90–98 (1994)). The cDNA for GADD 45 was generated by PCR using primers based on the human GADD 45 gene sequence (Mitsudomi, T. et al., Oncogene 7:171–180 (1992)). The cDNA for ERCC 3 was purchased from the American Type Culture Collection (ATCC, Rockville, Md.). The SDI 1 cDNA was a gift of Dr. J. Smith and has been described previously (Walworth, N.C. and Bernards, R., Science 271:353–356 (1996)).

The subject of a further data set is TNF-α gene. Put plainly: TNFα promoter CAT reporter transgene in skin. In kind it is in vivo, mice. Conditions: intracutaneous pTpT 100 μM; LPS 1 μg/ml. As for the experimental part:
In another experiment, TNF-α gene activation was measured by utilizing mice carrying a CAT reporter transgene bearing the entire TNFα promoter and 3′-untranslated region. Transgenic mice were subjected to the following treatment prior to skin assay for CAT expression: UVB irradiation (200–700 J/m^2), intracutaneous injection of pTpT (100 μM); lipopolysaccharide (LPS 1 μg/ml) as positive control, or vehicle alone.

Data set [3] concerns Cloudman S91 mouse melanoma cells. The experiment in a line: Melanin content of Cloudman S91 melanoma cells. It is filed as cell-based. The conditions noted are these: FIG. 16. The protocol:
The induction of melanogenesis in Cloudman S91 mouse melanoma cells by a five-nucleotide oligomer CATAC (SEQ ID NO: 6) and a nine-nucleotide oligomer, GAGTATGAG (SEQ ID NO: 1) was examined. Duplicates of Cloudman S91 murine melanoma cells were incubated with either 100 μM oligo or an equal volume of diluent (H2O) for 5 days. The cells were then collected, counted, and an equal number of cells were pelleted for melanin analysis. […] Variations of this oligonucleotide were evaluated: a scrambled 9-mer (TAGGAGGAT; SEQ ID NO: 2) and two truncated versions, a 7-mer (AGTATGA; SEQ ID NO: 3) and second 5-mer (GTATG; SEQ ID NO: 4). […] The truncated versions (SEQ ID NOs: 3 and 4) were also active, inducing 640% and 670% increases, respectively.
Cultures of Cloudman S91 murine melanoma cells were treated for 5 days with SEQ ID NO: 1, SEQ ID NO: 6, pTpT as a positive control, or an equal volume of diluent as a negative control. […] SEQ ID NO: 6 produced a slight increase in melanin, to 165+/−77% of control levels. SEQ ID NO: 1 stimulated melanin content to an average of 600+/−260% of control levels.
pTpT, shown previously to stimulate pigmentation in these cells, was used as a reference treatment, and diluent alone was used as a negative control. After five days of treatment with the oligonucleotides, the cells were collected, counted, and an equal number of cells were pelleted for melanin analysis. […] SEQ ID NO: 5, representing the telomere over-hang sequence, also at 10 μM, increased the melanin level to 10 times that of control cells.
S91 cells were cultured in the presence of diluent alone, pTpT p9mer (SEQ ID NO: 1), p7mer (AGTATGA; SEQ ID NO: 7) or p5mer #2 (SEQ ID NO: 4). […] Both SEQ ID NOS: 4 and 7 stimulated a 7–8 fold increase in melanin.
S91 cells were cultured for 5 days in the presence of the thymidine dinucleotides or SEQ ID NO: 1 with or without a 5′ phosphate or diluent alone as a negative control.
Cultures of S91 mouse melanoma cells (100,000 cells/38 cm^2) were treated with 100 μM pTpT or phosphorothioate pTpT (pTspT) (FIG. 22) or 40 μM 11mer-1 or the phosphorothioate 11mer-1 (11mer-1-S) (FIG. 23) for 6 days and were then collected, counted and assayed for melanin content.
Duplicate cultures of S91 cells (100,000 cells/39 cm^2) were either sham-irradiated or irradiated with 5 mJ/cm^2 solar-simulated light from a 1 kW xenon arc solar-simulator (XMN 1000-21, Optical Radiation, Azuza, Calif.) metered at […] using a research radiometer (model IL1700A, International Light, Newburyport, Mass.). Two sham-irradiated plates were then supplemented with 100 μM pTspT and two irradiated cultures were similarly treated with pTspT. After one week, cells were collected, counted and analyzed for melanin content by dissolving the cell pellets in 1 N NaOH and measuring the optical density at […]. […] However, this response was blocked by the addition of pTspT (FIG. 24). In addition, the constitutive pigmentation of these cells was reduced by the pTspT in the sham-irradiated cultures, similar to the data presented in FIGS. 22 and 23.

In the next data set the test system is S91 cells. The experiment in a line: Cellular uptake of FAM-labeled oligonucleotides in S91 cells. It is filed as in vitro ADME, mouse. The conditions noted are these: 4 hours. The protocol:
Fluorescein phosphoramidite (FAM) labeled oligonucleotides were added to cultures of S91 cells for 4 hours and the cells were then prepared for confocal microscopy. Nuclei, identified by staining with propidium iodide, appeared red and FAM-labeled oligonucleotides appeared green. Co-localization of red and green signals was assigned a yellow color by the computer. […] There was no change in the profile of oligonucleotide uptake after 6 and 24 hours.

{P} = phosphate

“deoxyadenine dinucleotide [pdApdA, reference compound]”: the cell growth rate entry in data set [1] is listed as “has no effect”. For the same substance, the “ear swelling responses to DNFB challenge” value with contact hypersensitivity amounted to 2.5±0.6. In data set [2], the “mRNAs for GADD 45, ERCC 3 and SDI 1” value is recorded as “less effective or ineffective”.
On to “lipopolysaccharide [LPS, reference compound]”, for which the “CAT activity in skin” value with TNF-α gene is on record as “CAT activity was detected”.
Take “pGCATGCATGCATTACGTACG (DNA, 5' {P}, backbone not given here) [SEQ ID NO: 8]”: the “pigmentation relative to control cells” value in data set [3] is “twice the level of control cells”. Also, the “cellular uptake and localization (confocal microscopy, FACS)” value in the data set with S91 cells is recorded as “pattern of fluorescence very similar to that seen with phosphorylated SEQ ID NO: 1”.
